# Test results published in patent US20220056018A1, “SREBP INHIBITORS COMPRISING A THIOPHENE CENTRAL RING” (Capulus Therapeutics, LLC, priority 2019, published 2022).
# Key:
# Assay in all cases: Cancer cell growth inhibition
# Format in all cases: cell-based
# 5637 = 5637 (bladder), 72 hr treatment
# Method: (§1) The ability of select compounds to inhibit cell growth in various cancer cell lines are evaluated. […] The cell lines shown in Table 2 have reduced growth by at least 50% at 10 uM or lower over 72 hr treatment in growth media. The cell lines shown in Table 3 have reduced growth by at least 50% with an IC50 greater than 10 uM.
# (§2) Six 10-fold compound dilutions are prepared in DMSO (e.g. 10 mM, 1 mM, 100 uM, 10 uM, 1 uM, and 0.1 uM). Single data points are acquired for each concentration. The final concentration of DMSO is 0.1%. The duration of the treatment is 72 hr. Growth inhibition is measured using Sulforhodamine B in a protein staining assay. Activity of the agents is determined by evaluation the following parameters: IC50, GI50, IC10, TGI, LC50, IC90, and GI90 (where these values can be calculated).
# A204 = conditions: Homo sapiens; A204 (muscle), 72 hr treatment
# Method: as §1, §2
# A2780 = conditions: Homo sapiens; A2780 (ovary), 72 hr treatment
# Method: as §1, §2
# A431 = conditions: Homo sapiens, A-431; A431 (skin), 72 hr treatment
# Method: as §1, §2
# A549 = conditions: Homo sapiens; A549 (lung), 72 hr treatment
# Method: as §1, §2
# BT20 = conditions: Homo sapiens, BT-20; BT20 (breast), 72 hr treatment
# Method: as §1, §2
# CACO2 = conditions: Homo sapiens, Caco-2; CACO2 (colon), 72 hr treatment
# Method: as §1, §2
# DU145 = conditions: Homo sapiens, DU-145; DU145 (prostate), 72 hr treatment
# Method: as §1, §2
# EJ28 = conditions: Homo sapiens, EJ-28; EJ28 (bladder), 72 hr treatment
# Method: as §1, §2
# GRANTA-519 = conditions: Homo sapiens; GRANTA-519 (hematological), 72 hr treatment
# Method: as §1, §2
# HCT15 = conditions: Homo sapiens, HCT-15; HCT15 (colon), 72 hr treatment
# Method: as §1, §2
# HEK293 = conditions: Homo sapiens; HEK293 (kidney), 72 hr treatment
# Method: as §1, §2
# HT29 = conditions: Homo sapiens, HT-29; HT29 (colon), 72 hr treatment
# Method: as §1, §2
# IGROV1 = conditions: Homo sapiens, IGROV-1; IGROV1 (ovary), 72 hr treatment
# Method: as §1, §2
# JEG3 = conditions: Homo sapiens, JEG-3; JEG3 (placenta), 72 hr treatment
# Method: as §1, §2
# K-562 = conditions: Homo sapiens, K562; K-562 (hematological), 72 hr treatment
# Method: as §1, §2
# MCF7 = conditions: Homo sapiens; MCF7 (breast), 72 hr treatment
# Method: as §1, §2
# MDAMB231 = conditions: Homo sapiens, MDA-MB-231; MDAMB231 (breast), 72 hr treatment
# Method: as §1, §2
# MDAMB468 = conditions: Homo sapiens, MDA-MB-468; MDAMB468 (breast), 72 hr treatment
# Method: as §1, §2
# MHHES1 = conditions: Homo sapiens, MHH-ES-1; MHHES1 (bone), 72 hr treatment
# Method: as §1, §2
# MINO = conditions: Homo sapiens; MINO (hematological), 72 hr treatment
# Method: as §1, §2
# NCIH292 = conditions: Homo sapiens, NCI-H292; NCIH292 (lung), 72 hr treatment
# Method: as §1, §2
# OVCAR3 = conditions: Homo sapiens, OVCAR-3; OVCAR3 (ovary), 72 hr treatment
# Method: as §1, §2
# PLCPRF5 = conditions: Homo sapiens, PLC-PRF-5; PLCPRF5 (liver), 72 hr treatment
# Method: as §1, §2
# RAMOS = conditions: Homo sapiens; RAMOS (hematological), 72 hr treatment
# Method: as §1, §2
# SKMEL5 = conditions: Homo sapiens, SK-MEL-5; SKMEL5 (skin), 72 hr treatment
# Method: as §1, §2
# SKNSH = conditions: Homo sapiens, SK-N-SH; SKNSH (brain), 72 hr treatment
# Method: as §1, §2
# SNB75 = conditions: Homo sapiens, SNB-75; SNB75 (brain), 72 hr treatment
# Method: as §1, §2
# SU-DHL-10 = conditions: Homo sapiens, SU-DHL10; SU-DHL-10 (hematological), 72 hr treatment
# Method: as §1, §2
# SU-DHL-6 = conditions: Homo sapiens; SU-DHL-6 (hematological), 72 hr treatment
# Method: as §1, §2
# TE671 = conditions: Homo sapiens, TE-671; TE671 (muscle), 72 hr treatment
# Method: as §1, §2
IC50 5637 [µM],IC50 (A204) [µM],IC50 (A2780) [µM],IC50 (A431) [µM],IC50 (A549) [µM],IC50 (BT20) [µM],IC50 (CACO2) [µM],IC50 (DU145) [µM],IC50 (EJ28) [µM],IC50 (GRANTA-519) [µM],IC50 (HCT15) [µM],IC50 (HT29) [µM],IC50 (IGROV1) [µM],IC50 (JEG3) [µM],IC50 (K-562) [µM],IC50 (MCF7) [µM],IC50 (MDAMB231) [µM],IC50 (MDAMB468) [µM],IC50 (MHHES1) [µM],SMILES,IC50 (HEK293) [µM],other results
> 10,> 10,< 10,> 10,< 10,> 10,< 10,> 10,> 10,> 10,< 10,< 10,> 10,< 10,< 10,< 10,> 10,< 10,< 10,"CC(C)(O)Cc1cc(-c2csc(-c3ccc(NS(C)(=O)=O)cc3Cl)c2)ccn1 [Compound I-9004, N-(3-chloro-4-(4-(2-(2-hydroxy-2-methylpropyl)pyridin-4-yl)thiophen-2-yl)phenyl)methanesulfonamide]",< 10,IC50 (MINO): < 10 µM; IC50 (NCIH292): < 10 µM; IC50 (OVCAR3): < 10 µM; IC50 (PLCPRF5): < 10 µM; IC50 (RAMOS): < 10 µM; IC50 (SKMEL5): < 10 µM; IC50 (SKNSH): < 10 µM; IC50 (SNB75): > 10 µM; IC50 (SU-DHL-10): < 10 µM; IC50 (SU-DHL-6): < 10 µM; IC50 (TE671): < 10 µM
< 10,< 10,< 10,> 10,< 10,> 10,< 10,> 10,> 10,> 10,> 10,< 10,> 10,< 10,< 10,< 10,> 10,< 10,< 10,"CC(C)(CO)c1cc(-c2csc(-c3ccc(NS(C)(=O)=O)cc3Cl)c2)ccn1 [Compound I-8909, N-(3-chloro-4-(4-(2-(1-hydroxy-2-methylpropan-2-yl)pyridin-4-yl)thiophen-2-yl)phenyl)methanesulfonamide]",< 10,IC50 (MINO): < 10 µM; IC50 (NCIH292): < 10 µM; IC50 (OVCAR3): < 10 µM; IC50 (PLCPRF5): < 10 µM; IC50 (RAMOS): < 10 µM; IC50 (SKMEL5): < 10 µM; IC50 (SKNSH): < 10 µM; IC50 (SNB75): > 10 µM; IC50 (SU-DHL-10): < 10 µM; IC50 (SU-DHL-6): < 10 µM; IC50 (TE671): < 10 µM
< 10,< 10,< 10,> 10,< 10,< 10,< 10,< 10,> 10,< 10,> 10,< 10,< 10,< 10,< 10,< 10,> 10,< 10,< 10,"CS(=O)(=O)Nc1ccc(-c2cc(-c3ccnc4c3OCCO4)cs2)c(Cl)c1 [Compound I-9017, N-(3-chloro-4-(4-(2,3-dihydro-[1,4]dioxino[2,3-b]pyridin-8-yl)thiophen-2-yl)phenyl)methanesulfonamide]",< 10,IC50 (MINO): < 10 µM; IC50 (NCIH292): < 10 µM; IC50 (OVCAR3): < 10 µM; IC50 (PLCPRF5): < 10 µM; IC50 (RAMOS): < 10 µM; IC50 (SKMEL5): < 10 µM; IC50 (SKNSH): < 10 µM; IC50 (SNB75): > 10 µM; IC50 (SU-DHL-10): < 10 µM; IC50 (SU-DHL-6): < 10 µM; IC50 (TE671): < 10 µM
